Our source for the IC50 values is BindingDB's records for patent US11814384 (Kinnate Biopharma, 2023).

Usually IC50 stands for the concentration that inhibits the measured activity by half. Lower therefore signals higher potency.

The target in this test is Serine/threonine-protein kinase B-raf (Homo sapiens, UniProt P15056). The test can be described thus: Enzymatic BRAF Kinase Activity Assay. How it is done: Small molecule inhibition of the BRAF kinases was measured using ADP-Glo assay. In the assay, […], resulting in luciferase reaction and luminescent readout with light generated proportional to the relative kinase activity. Compounds diluted in DMSO were used in 10-point, 3-fold dose curve for both assays. Final concentrations of 6 nM BRAF (CarnaBio, Cat. 09-122) or 3 nM RAF1 (CarnaBio, Cat. 09-125) and 30 nM MEK1 substrate (Millipore, Cat. 14-420) were incubated with 3 µM ATP, 10 mM MgCl2, 0.003% Brij-35, 2 mM DTT, 0.05% BSA, 1 mM EGTA, and 50 mM HEPES for 90 minutes at room temp prior to addition of ADP-Glo reagent (Promega, Cat. V9102) for 40 minutes, and detection reagent for 45 minutes. Luminescence was read on an Envision plate reader (PerkinElmer) and percent remaining activity was used to calculate IC50 using a four-parameter fit model using Dotmatics Knowledge Solutions Studies curve fitting (Dotmatics, Bishops Stortford, UK, CM23).
Chain of Serine/threonine-protein kinase B-raf (P15056 whole entry): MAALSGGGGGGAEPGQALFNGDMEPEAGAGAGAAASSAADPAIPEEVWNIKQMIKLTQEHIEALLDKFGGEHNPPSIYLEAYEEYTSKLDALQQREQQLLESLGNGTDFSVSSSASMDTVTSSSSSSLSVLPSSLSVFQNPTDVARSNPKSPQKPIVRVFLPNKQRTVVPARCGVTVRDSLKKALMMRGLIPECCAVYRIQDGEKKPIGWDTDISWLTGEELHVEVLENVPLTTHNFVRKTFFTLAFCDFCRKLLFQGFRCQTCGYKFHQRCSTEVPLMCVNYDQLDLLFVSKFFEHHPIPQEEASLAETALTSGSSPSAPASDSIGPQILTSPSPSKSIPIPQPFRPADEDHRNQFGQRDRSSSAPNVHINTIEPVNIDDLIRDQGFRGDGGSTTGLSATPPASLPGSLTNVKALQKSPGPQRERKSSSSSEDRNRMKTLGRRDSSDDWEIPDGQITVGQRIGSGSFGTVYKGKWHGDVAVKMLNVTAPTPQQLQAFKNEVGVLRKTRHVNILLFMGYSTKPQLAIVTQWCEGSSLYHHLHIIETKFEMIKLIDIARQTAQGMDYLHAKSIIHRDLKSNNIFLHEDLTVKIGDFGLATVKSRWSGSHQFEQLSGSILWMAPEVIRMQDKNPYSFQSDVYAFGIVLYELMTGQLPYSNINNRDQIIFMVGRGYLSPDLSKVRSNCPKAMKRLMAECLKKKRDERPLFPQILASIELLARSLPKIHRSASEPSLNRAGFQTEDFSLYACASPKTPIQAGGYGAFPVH
On to `Cc1cn2cc(-c3cc(NC(=O)c4cn(C(C)(C)C)cn4)c(F)cc3C)cc(N3CCOCC3)c2n1` [US11814384, Example 140], for which the IC50 entry was “in the range around 5.5 nM”.
The result for `Cc1cc(F)c(NC(=O)c2nn(C(C)(C)C)cc2F)cc1-c1cc(N2CCOCC2)c2nccn2c1` [US11814384, Example 141] reads “in the range around 5.5 nM”; that for `Cc1ccc(NC(=O)c2nn(C(C)(C)C)cc2F)cc1-c1cc(N2CCOCC2)c2nccn2c1` [US11814384, Example 142], “in the range around 5.5 nM”; that for `Cc1cn2cc(-c3cc(NC(=O)c4cnn(C(C)(C)C)c4F)c(F)cc3C)cc(N3CCOCC3)c2n1` [US11814384, Example 143], “in the range around 5.5 nM”.
The result for `Cc1cn2cc(-c3cc(NC(=O)c4cn(C(C)(C)C)c(F)n4)c(F)cc3C)cc(N3CCOCC3)c2n1` [US11814384, Example 148] reads “in the range around 5.5 nM”.
The result for `CC(C)(C)n1cc(C(=O)Nc2cc(-c3cc(N4CCOCC4)c4nccn4c3)c(Cl)cc2F)nc1F` [US11814384, Example 151] reads “in the range around 5.5 nM”.
As for `Cc1cc(F)c(NC(=O)c2cnn(C(C)(C)C)c2F)cc1-c1cc(C2=CCOCC2)c2nccn2c1` [US11814384, Example 153], the IC50 entry was “in the range around 5.5 nM”.
The result for `Cc1c(-c2cc(N3CCOCC3)c3nccn3c2)cc(NC(=O)c2cnn(C(C)(C)C)c2F)c(F)c1F` [US11814384, Example 159] reads “in the range around 5.5 nM”; that for `Cc1cc(F)c(NC(=O)c2ncn(C(C)(C)C)c2F)cc1-c1cc(N2CCOCC2)c2nccn2c1` [US11814384, Example 160], “in the range around 5.5 nM”.
The result for `Cc1cc(F)c(NC(=O)c2cnn(C(C)(C)C)c2F)cc1-c1cc(N2CCOCC2)n2nccc2c1` [US11814384, Example 162] reads “in the range around 5.5 nM”; that for `Cc1cc(F)c(NC(=O)c2cnn(C34CC(C3)C4)c2)cc1-c1cc(N2CCOCC2)c2nccn2c1` [US11814384, Example 164], “in the range around 5.5 nM”; that for `Cc1cc(F)c(NC(=O)c2ccnc(N3CCCC3)c2)cc1-c1cc(N2CCOCC2)c2nccn2c1` [US11814384, Example 166], “in the range around 5.5 nM”.
Then `Cc1cc(F)c(NC(=O)c2cnn(C(C)(C)C)c2F)cc1-c1cc(N2CC3CCC(C2)O3)c2nccn2c1` [US11814384, Example 180], with “in the range around 5.5 nM”; and `Cc1cc(F)c(NC(=O)c2cnn(C(C)(C)C)c2F)cc1-c1cc(N2CCOCC2)c2ncnn2c1` [US11814384, Example 181], with “in the range around 5.5 nM”; and `Cc1cc(F)c(NC(=O)c2cnc(C(C)(C)C)o2)cc1-c1cc(N2CCOCC2)c2nccn2c1` [US11814384, Example 183], with “in the range around 5.5 nM”.
As to `Cc1cc(F)c(NC(=O)c2coc(C(C)(C)C)n2)cc1-c1cc(N2CCOCC2)c2nccn2c1` [US11814384, Example 184], the IC50 result was “in the range around 5.5 nM”.
Then `Cc1ccc(NC(=O)c2cnc(C(C)(C)C)o2)cc1-c1cc(N2CCOCC2)c2nccn2c1` [US11814384, Example 185], with “in the range around 5.5 nM”.
Regarding `Cc1cc(F)c(NC(=O)c2cnn(C(C)(C)C)n2)cc1-c1cc(N2CCOCC2)c2nccn2c1` [US11814384, Example 186], the IC50 result was “in the range around 5.5 nM”.
Then `Cc1cc(F)c(NC(=O)c2ccnc(C34CC(C3)C4)c2)cc1-c1cc(N2CCOCC2)c2nccn2c1` [US11814384, Example 188], with “in the range around 5.5 nM”.
Then `Cc1cc(F)c(NC(=O)c2cnn(C(C)(C)C)c2F)cc1-c1cc(N2CCOCC2)n2ncnc2c1` [US11814384, Example 189], with “in the range around 5.5 nM”.
Regarding `Cc1cc(F)c(C(=O)Nc2cnn(C(C)(C)C)c2)cc1-c1cc(N2CCOCC2)c2nccn2c1` [US11814384, Example 204], the IC50 result was “in the range around 5.5 nM”.
Then `Cc1cc(F)c(C(=O)Nc2cccc(C(C)(C)C)c2)cc1-c1cc(N2CCOCC2)c2nccn2c1` [US11814384, Example 205], with “in the range around 55 nM”; and `Cc1cc(F)c(NC(=O)c2ccnc3c2ccn3C(C)C)cc1-c1cc(N2CCOCC2)c2nccn2c1` [US11814384, Example 206], with “in the range around 5.5 nM”; and `Cc1cc(F)c(NC(=O)c2cnn(C(C)(C)C)c2F)cc1-c1cc(N2CCOCC2)c2nnnn2c1` [US11814384, Example 220], with “in the range around 55 nM”.
The result for `CC(C)(C)n1ncc(C(=O)Nc2cc(-c3cc(N4CCOCC4)c4nccn4c3)c(Cl)cn2)c1F` [US11814384, Example 226] reads “in the range around 5.5 nM”.
`Cc1cc(F)c(NC(=O)c2cnn(C(C)(C)C)c2F)cc1-c1cn2ccnc2c(N2CCOCC2)n1` [US11814384, Example 228]: the IC50 entry is “in the range around 5.5 nM”.
Then `Cc1cc(F)c(NC(=O)c2cc(F)n(C3(C)CC3)c2)cc1-c1cc(N2CCOCC2)c2nccn2c1` [US11814384, Example 247], with “in the range around 55 nM”.
Then `Cc1cc(F)c(C(=O)Nc2cnn(C(C)(C)C)c2F)cc1-c1cc(N2CCOCC2)c2nccn2n1` [US11814384, Example 260], with “in the range around 5.5 nM”; and `Cc1cc(F)c(NC(=O)c2ccnc(N(C)C(F)(F)F)c2)cc1-c1cc(N2CCOCC2)c2nccn2c1` [US11814384, Example 263], with “in the range around 5.5 nM”.
For the compound `Cc1cn2nc(-c3cc(NC(=O)c4cnn(C(C)(C)C)c4F)c(F)cc3C)cc(N3CCOCC3)c2n1` [US11814384, Example 265], the IC50 entry was “in the range around 5.5 nM”.
In the case of `Cc1cn2cc(-c3cc(C(=O)Nc4cnn(C(C)(C)C)c4F)c(F)cc3C)cc(N3CCOCC3)c2n1` [US11814384, Example 267], the IC50 result was “in the range around 5.5 nM”.
Then `Cc1cc(F)c(NC(=O)c2cnn(C(C)(C)C)c2F)cc1-c1cc(N2CCOCC2)c2nc(C)c(F)n2c1` [US11814384, Example 273], with “in the range around 5.5 nM”; and `Cc1ccc(NC(=O)c2cnn(C(C)(C)C)c2F)cc1-c1cc(N2CCOCC2)c2nc(C)c(F)n2c1` [US11814384, Example 274], with “in the range around 5.5 nM”.
Then `Cc1nc2cc(-c3cc(NC(=O)c4cnn(C(C)(C)C)c4F)c(F)cc3C)cc(N3CCOCC3)n2n1` [US11814384, Example 282], with “in the range around 55 nM”; and `Cc1nc2cc(-c3cc(C(=O)Nc4cnn(C(C)(C)C)c4F)c(F)cc3C)cc(N3CCOCC3)n2n1` [US11814384, Example 283], with “in the range around 5.5 nM”; and `Cc1nc2c(N3CCOCC3)cc(-c3cc(C(=O)Nc4cnn(C(C)(C)C)c4F)c(F)cc3C)cn2n1` [US11814384, Example 285], with “in the range around 5.5 nM”.
The result for `Cc1nc2cc(-c3cc(NC(=O)c4cnc(C(C)(C)C)o4)c(F)cc3C)cc(N3CCOCC3)n2n1` [US11814384, Example 291] reads “in the range around 55 nM”.
`Cc1nc2cc(-c3cc(NC(=O)c4coc(C(C)(C)C)n4)c(F)cc3C)cc(N3CCOCC3)n2n1` [US11814384, Example 292]: the IC50 result is “in the range around 55 nM”.
The result for `Cc1nc2c(N3CCOCC3)cc(-c3cc(NC(=O)c4cnc(C(C)(C)C)o4)c(F)cc3C)cn2n1` [US11814384, Example 293] reads “in the range around 5.5 nM”; that for `Cc1nc2c(N3CCOCC3)cc(-c3cc(NC(=O)c4coc(C(C)(C)C)n4)c(F)cc3C)cn2n1` [US11814384, Example 294], “in the range around 55 nM”.
In the case of `Cc1nc2c(N3CCOCC3)cc(-c3cc(NC(=O)c4cnn(C(C)(C)C)n4)c(F)cc3C)cn2n1` [US11814384, Example 303], the IC50 result was “in the range around 5.5 nM”.
The result for `Cc1cc(F)c(NC(=O)c2cnc(C(C)(C)C)o2)cc1-c1cc(N2CCOCC2)n2nc(C3CC3)nc2c1` [US11814384, Example 304] reads “in the range around 5.5 nM”.
Regarding `CCc1nc2cc(-c3cc(NC(=O)c4cnc(C(C)(C)C)o4)c(F)cc3C)cc(N3CCOCC3)n2n1` [US11814384, Example 305], the IC50 entry was “in the range around 55 nM”.
The result for `CCc1nc2cc(-c3cc(C(=O)Nc4cnn(C(C)(C)C)c4F)c(F)cc3C)cc(N3CCOCC3)n2n1` [US11814384, Example 306] reads “in the range around 5.5 nM”; that for `Cc1cc(F)c(C(=O)Nc2cnn(C(C)(C)C)c2F)cc1-c1cc(N2CCOCC2)n2nc(C3CC3)nc2c1` [US11814384, Example 307], “in the range around 5.5 nM”; that for `Cc1cc(F)c(C(=O)Nc2cnn(C(C)(C)C)c2F)cc1-c1cc(N2CCOCC2)c2nc(C(C)C)nn2c1` [US11814384, Example 308], “in the range around 5.5 nM”.
Then `Cc1cc(F)c(C(=O)Nc2cnn(C(C)(C)C)c2F)cc1-c1cc(N2CCOCC2)c2nc(N(C)C)nn2c1` [US11814384, Example 309], with “in the range around 5.5 nM”; and `Cc1nc2c(N3CCOCC3)cc(-c3cc(C(=O)Nc4cn(C5(C)CC5)nc4F)c(F)cc3C)cn2n1` [US11814384, Example 310], with “in the range around 5.5 nM”.
